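Assay format: 96-well plates, 48-hour exposure. Definition used: TGI = concentration required for complete inhibition of growth.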

Test systems include A549 NSCLC; BT-549 breast; DU-145 prostate; EKVX NSCLC; HOP-92 NSCLC; KM12 colon; LOX IMVI melanoma; M14 melanoma; MCF7 breast; NCI-H23 lung; NCI/ADR-RES ovarian; SK-MEL-2 melanoma; SK-MEL-5 melanoma; T-47D breast; TK-10 renal; UACC-62 melanoma; UO-31 renal.
What all share (test): inhibition of tumour cell growth, NCI panel, 48 h

On to `O=P12N(CCN1c1ccccc1)CCN2c1ccccc1`, for which the TGI with A549 NSCLC, with BT-549 breast, with DU-145 prostate, in the test on EKVX NSCLC, in the test with HOP-92 NSCLC and in the test with KM12 colon was greater than 100 µM each time. Moreover, the TGI in the test with LOX IMVI melanoma, in the test with M14 melanoma, in the test on MCF7 breast, in the test on NCI-H23 lung, with NCI/ADR-RES ovarian and with SK-MEL-2 melanoma was greater than 100 µM throughout. Further, the TGI in the test on SK-MEL-5 melanoma, in the test on T-47D breast, with TK-10 renal, in the test on UACC-62 melanoma and in the test on UO-31 renal was greater than 100 µM throughout.
With `O=C1NC(=O)C(F)(n2cc(F)c(=O)[nH]c2=O)C(O)N1` (stereo not drawn), the TGI with A549 NSCLC, with BT-549 breast, in the test on DU-145 prostate, in the test with EKVX NSCLC, in the test with HOP-92 NSCLC and in the test on KM12 colon was greater than 10 µM throughout. Also, the TGI in the test with LOX IMVI melanoma, in the test with M14 melanoma, in the test with MCF7 breast, in the test with NCI-H23 lung, in the test on NCI/ADR-RES ovarian and with SK-MEL-2 melanoma was greater than 10 µM throughout. Also, the TGI in the test on SK-MEL-5 melanoma, with T-47D breast, in the test on TK-10 renal, in the test with UACC-62 melanoma and in the test on UO-31 renal was greater than 10 µM throughout.
As to `O=C(O)CN1C=C(C(=O)c2cc3ccccc3n2S(=O)(=O)c2ccccc2)CCC1`, the TGI in the test on A549 NSCLC, in the test on BT-549 breast, in the test on DU-145 prostate, with EKVX NSCLC, with HOP-92 NSCLC and in the test on KM12 colon was greater than 100 µM each time. The TGI in the test on LOX IMVI melanoma, in the test with M14 melanoma, with MCF7 breast, in the test with NCI-H23 lung, in the test with NCI/ADR-RES ovarian and in the test on SK-MEL-2 melanoma was greater than 100 µM in each case. Moreover, the TGI with SK-MEL-5 melanoma is 71.8 µM; in the test with T-47D breast it was greater than 100 µM; with TK-10 renal, greater than 100 µM; in the test on UACC-62 melanoma, greater than 100 µM; in the test on UO-31 renal, greater than 100 µM.
In the case of `c1ccc2c(Cc3[nH]c4ccccc4c3Cc3c[nH]c4ccccc34)c[nH]c2c1`, the TGI in the test on A549 NSCLC was determined as 21.6 µM; in the test with BT-549 breast, 19.5 µM; with DU-145 prostate, 4.48 µM; in the test with EKVX NSCLC, 11.4 µM; in the test on HOP-92 NSCLC it was 18.1 µM; in the test on KM12 colon, 4.84 µM. For the same compound, the TGI was 5.57 µM in the test with LOX IMVI melanoma; 6.71 µM in the test on M14 melanoma; greater than 26.5 µM in the test with MCF7 breast; 7.49 µM with NCI-H23 lung; 17.2 µM in the test on NCI/ADR-RES ovarian; 7.71 µM with SK-MEL-2 melanoma. In addition, the TGI in the test with SK-MEL-5 melanoma was 6.05 µM; with T-47D breast, 12.8 µM; in the test on TK-10 renal it was 8.1 µM; with UACC-62 melanoma it was greater than 32.4 µM; in the test on UO-31 renal, 11.1 µM.
With `CC#CC(O)(C(=O)OCCCN(C)C)C1CCCCC1` (stereo not drawn), the TGI in the test on A549 NSCLC, in the test on BT-549 breast, in the test with DU-145 prostate, in the test on EKVX NSCLC, with HOP-92 NSCLC and with KM12 colon was greater than 100 µM throughout. Also, the TGI in the test on LOX IMVI melanoma, with M14 melanoma, in the test with MCF7 breast, in the test on NCI-H23 lung, with NCI/ADR-RES ovarian and with SK-MEL-2 melanoma was greater than 100 µM each time. For the same compound, the TGI in the test with SK-MEL-5 melanoma, in the test on T-47D breast, with TK-10 renal, in the test with UACC-62 melanoma and in the test on UO-31 renal was greater than 100 µM throughout.
For `CC(C)C1C(=O)N(c2c(F)c(F)c(F)c(F)c2F)C(=S)N1CCS(=O)c1ccccc1` (stereo not drawn), the TGI in the test on A549 NSCLC came to 40.1 µM; with BT-549 breast it was 30.9 µM; with DU-145 prostate, 47.6 µM; in the test with EKVX NSCLC, 31.3 µM; with HOP-92 NSCLC it was 34.8 µM; in the test with KM12 colon, 32.6 µM. The TGI in the test on LOX IMVI melanoma is 28.2 µM; with M14 melanoma it was 30.6 µM; in the test with MCF7 breast, 35.3 µM; with NCI-H23 lung, 33.3 µM; in the test with NCI/ADR-RES ovarian it was 40.8 µM; in the test with SK-MEL-2 melanoma, 32.8 µM. For the same compound, the TGI in the test with SK-MEL-5 melanoma stood at 27.3 µM; in the test on T-47D breast, 32.5 µM; in the test with TK-10 renal it was 52 µM; with UACC-62 melanoma, 34.9 µM; in the test on UO-31 renal, 28.6 µM.
With `O=c1cc(N=Nc2ccc(Br)cc2)[nH]c(=S)[nH]1`, the TGI in the test on A549 NSCLC is greater than 100 µM; in the test on BT-549 breast, greater than 100 µM; with DU-145 prostate, greater than 100 µM; in the test with EKVX NSCLC, 39.6 µM; in the test on HOP-92 NSCLC, 50.5 µM; with KM12 colon, greater than 100 µM. Moreover, the TGI was 29.4 µM with LOX IMVI melanoma; 29.1 µM in the test on M14 melanoma; 42.7 µM in the test on MCF7 breast; greater than 100 µM with NCI-H23 lung; greater than 100 µM with NCI/ADR-RES ovarian; 33.3 µM in the test with SK-MEL-2 melanoma. The TGI was greater than 100 µM in the test with SK-MEL-5 melanoma; 62.4 µM with T-47D breast; 32.1 µM in the test on TK-10 renal; greater than 100 µM in the test on UACC-62 melanoma; greater than 100 µM with UO-31 renal.
As to `CCCCNC(=O)c1cc2c(cc1Cl)Sc1nccn1S2(=O)=O`, the TGI with A549 NSCLC, in the test on BT-549 breast, in the test with DU-145 prostate, in the test on EKVX NSCLC, in the test on HOP-92 NSCLC and in the test on KM12 colon was greater than 100 µM in each case. In addition, the TGI in the test with LOX IMVI melanoma, in the test on M14 melanoma, in the test with MCF7 breast, in the test on NCI-H23 lung, in the test on NCI/ADR-RES ovarian and with SK-MEL-2 melanoma was greater than 100 µM throughout. Besides, the TGI in the test with SK-MEL-5 melanoma is 63.7 µM; in the test on T-47D breast, greater than 100 µM; with TK-10 renal it was greater than 100 µM; in the test on UACC-62 melanoma it was greater than 100 µM; in the test with UO-31 renal, greater than 100 µM.
On to `O=C1CSC(/C=C/c2ccccc2)N1c1nc2cc3sc(N4C(=O)CSC4/C=C/c4ccccc4)nc3cc2s1` (stereo not drawn), for which the TGI is greater than 100 µM in the test with A549 NSCLC; greater than 100 µM in the test on BT-549 breast; greater than 100 µM with DU-145 prostate; greater than 80.9 µM in the test on EKVX NSCLC; greater than 100 µM in the test on HOP-92 NSCLC; greater than 100 µM with KM12 colon. Moreover, the TGI with LOX IMVI melanoma, in the test with M14 melanoma, with MCF7 breast, in the test on NCI-H23 lung, in the test with NCI/ADR-RES ovarian and in the test with SK-MEL-2 melanoma was greater than 100 µM throughout. Also, the TGI with SK-MEL-5 melanoma, in the test with T-47D breast, in the test on TK-10 renal, in the test with UACC-62 melanoma and in the test with UO-31 renal was greater than 100 µM each time.

The values above are taken from PubChem BioAssay (NCI).
